Test results as given in doi:10.1101/2023.11.24.568596v1 (biorxiv, 2023).

What was measured:
Settings in all cases: binder
MST3 = MST3 (Homo sapiens, UniProt Q9Y6E0)
MER = biological target: T1, MER (Homo sapiens, UniProt Q12866)
T1 sequence (Q12866 1-999): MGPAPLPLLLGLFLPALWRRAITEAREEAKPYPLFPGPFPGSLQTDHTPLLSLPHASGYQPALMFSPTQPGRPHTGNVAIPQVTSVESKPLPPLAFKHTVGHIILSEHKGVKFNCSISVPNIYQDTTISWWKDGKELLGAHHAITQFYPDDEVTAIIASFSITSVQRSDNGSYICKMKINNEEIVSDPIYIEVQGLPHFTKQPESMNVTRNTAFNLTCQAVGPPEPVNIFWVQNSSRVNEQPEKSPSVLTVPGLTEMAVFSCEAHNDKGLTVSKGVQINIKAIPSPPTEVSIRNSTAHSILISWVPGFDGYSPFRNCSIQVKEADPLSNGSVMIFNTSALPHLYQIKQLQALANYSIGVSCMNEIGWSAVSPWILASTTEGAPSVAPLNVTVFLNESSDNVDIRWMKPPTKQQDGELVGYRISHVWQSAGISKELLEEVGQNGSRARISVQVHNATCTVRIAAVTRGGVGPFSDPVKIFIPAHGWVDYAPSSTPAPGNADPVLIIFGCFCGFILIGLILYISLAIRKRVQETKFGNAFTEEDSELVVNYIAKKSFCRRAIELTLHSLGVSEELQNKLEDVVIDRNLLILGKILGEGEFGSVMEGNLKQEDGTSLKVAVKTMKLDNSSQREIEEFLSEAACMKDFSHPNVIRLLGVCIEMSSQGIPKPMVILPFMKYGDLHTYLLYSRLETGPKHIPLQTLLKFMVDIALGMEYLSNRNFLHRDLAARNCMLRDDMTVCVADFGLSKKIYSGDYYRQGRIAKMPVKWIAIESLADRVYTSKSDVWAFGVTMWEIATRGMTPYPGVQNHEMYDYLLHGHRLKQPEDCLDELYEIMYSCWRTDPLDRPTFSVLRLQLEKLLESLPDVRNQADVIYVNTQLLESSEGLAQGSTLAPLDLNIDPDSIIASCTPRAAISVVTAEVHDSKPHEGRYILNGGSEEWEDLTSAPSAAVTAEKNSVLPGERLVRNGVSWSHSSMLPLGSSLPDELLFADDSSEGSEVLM

MAP2K4 = biological target: T2, MAP2K4 (Homo sapiens, UniProt P45985)
T2 sequence (P45985 1-399): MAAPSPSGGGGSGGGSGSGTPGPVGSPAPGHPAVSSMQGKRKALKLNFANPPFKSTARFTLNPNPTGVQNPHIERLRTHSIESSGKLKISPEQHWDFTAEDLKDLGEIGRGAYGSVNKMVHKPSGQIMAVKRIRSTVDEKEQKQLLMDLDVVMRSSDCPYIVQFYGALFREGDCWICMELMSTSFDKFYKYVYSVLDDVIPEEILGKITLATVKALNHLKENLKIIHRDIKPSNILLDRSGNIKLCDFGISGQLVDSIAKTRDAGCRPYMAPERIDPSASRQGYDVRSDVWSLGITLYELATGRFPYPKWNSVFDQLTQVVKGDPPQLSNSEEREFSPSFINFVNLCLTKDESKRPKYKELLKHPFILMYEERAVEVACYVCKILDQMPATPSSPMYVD

MARK4 = biological target: T3, MARK4 (Homo sapiens, UniProt Q96L34)
T3 sequence (Q96L34 1-752): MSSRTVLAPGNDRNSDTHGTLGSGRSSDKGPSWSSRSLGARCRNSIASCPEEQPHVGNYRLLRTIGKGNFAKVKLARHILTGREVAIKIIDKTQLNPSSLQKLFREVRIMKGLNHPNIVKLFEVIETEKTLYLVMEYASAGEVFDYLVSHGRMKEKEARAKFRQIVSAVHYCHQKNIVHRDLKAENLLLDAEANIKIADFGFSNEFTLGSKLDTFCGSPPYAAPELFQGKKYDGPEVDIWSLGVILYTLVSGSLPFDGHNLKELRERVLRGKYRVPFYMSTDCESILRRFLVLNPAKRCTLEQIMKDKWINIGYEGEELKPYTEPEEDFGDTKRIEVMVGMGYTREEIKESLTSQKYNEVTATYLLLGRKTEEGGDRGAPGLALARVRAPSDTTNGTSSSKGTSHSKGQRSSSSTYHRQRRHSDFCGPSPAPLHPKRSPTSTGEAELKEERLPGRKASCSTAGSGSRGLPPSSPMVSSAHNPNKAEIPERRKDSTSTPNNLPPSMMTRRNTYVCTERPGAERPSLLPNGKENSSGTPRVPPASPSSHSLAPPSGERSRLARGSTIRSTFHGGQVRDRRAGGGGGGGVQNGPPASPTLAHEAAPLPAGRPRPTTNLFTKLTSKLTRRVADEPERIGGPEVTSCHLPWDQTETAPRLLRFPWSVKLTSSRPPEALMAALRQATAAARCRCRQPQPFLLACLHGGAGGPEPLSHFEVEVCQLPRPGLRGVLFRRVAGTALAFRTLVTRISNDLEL

FGFR1 = FGFR1 (Homo sapiens, UniProt P11362)
Chain of FGFR1 (P11362 whole entry): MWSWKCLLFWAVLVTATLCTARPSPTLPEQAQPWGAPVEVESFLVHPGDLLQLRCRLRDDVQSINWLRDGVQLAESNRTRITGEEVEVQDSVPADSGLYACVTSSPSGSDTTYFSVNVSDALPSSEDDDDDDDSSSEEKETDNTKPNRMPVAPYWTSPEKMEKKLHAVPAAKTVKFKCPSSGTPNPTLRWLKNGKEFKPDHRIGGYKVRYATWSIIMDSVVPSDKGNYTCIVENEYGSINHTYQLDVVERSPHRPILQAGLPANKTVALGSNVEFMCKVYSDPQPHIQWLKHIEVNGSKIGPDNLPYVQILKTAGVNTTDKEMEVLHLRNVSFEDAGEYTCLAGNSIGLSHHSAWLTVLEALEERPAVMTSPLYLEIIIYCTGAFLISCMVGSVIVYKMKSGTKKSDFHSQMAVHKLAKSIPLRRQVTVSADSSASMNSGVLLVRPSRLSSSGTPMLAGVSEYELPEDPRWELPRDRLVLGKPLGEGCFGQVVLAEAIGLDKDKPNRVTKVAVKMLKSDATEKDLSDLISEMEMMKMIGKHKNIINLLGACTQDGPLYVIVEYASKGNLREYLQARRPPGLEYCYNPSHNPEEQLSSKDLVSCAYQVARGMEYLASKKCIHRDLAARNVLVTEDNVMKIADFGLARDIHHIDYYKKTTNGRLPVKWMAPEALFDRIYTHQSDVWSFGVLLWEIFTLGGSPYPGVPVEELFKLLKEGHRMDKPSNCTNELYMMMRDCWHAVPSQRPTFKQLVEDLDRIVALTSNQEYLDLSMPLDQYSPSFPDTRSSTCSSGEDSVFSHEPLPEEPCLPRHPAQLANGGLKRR

CaMK1d = CaMK1d (Homo sapiens, UniProt Q8IU85)
Chain of CaMK1d (Q8IU85 whole entry): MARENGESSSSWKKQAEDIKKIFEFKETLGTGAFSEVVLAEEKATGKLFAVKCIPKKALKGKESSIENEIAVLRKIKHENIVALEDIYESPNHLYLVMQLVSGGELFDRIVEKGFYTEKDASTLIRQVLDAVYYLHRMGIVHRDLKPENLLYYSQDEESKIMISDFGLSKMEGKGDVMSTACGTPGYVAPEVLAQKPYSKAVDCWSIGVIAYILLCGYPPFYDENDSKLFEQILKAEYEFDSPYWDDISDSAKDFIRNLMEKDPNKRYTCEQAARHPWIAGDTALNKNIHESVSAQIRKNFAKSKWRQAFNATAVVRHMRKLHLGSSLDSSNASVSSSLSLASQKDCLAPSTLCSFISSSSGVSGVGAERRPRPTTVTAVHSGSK

Chain of MST3 (Q9Y6E0 whole entry): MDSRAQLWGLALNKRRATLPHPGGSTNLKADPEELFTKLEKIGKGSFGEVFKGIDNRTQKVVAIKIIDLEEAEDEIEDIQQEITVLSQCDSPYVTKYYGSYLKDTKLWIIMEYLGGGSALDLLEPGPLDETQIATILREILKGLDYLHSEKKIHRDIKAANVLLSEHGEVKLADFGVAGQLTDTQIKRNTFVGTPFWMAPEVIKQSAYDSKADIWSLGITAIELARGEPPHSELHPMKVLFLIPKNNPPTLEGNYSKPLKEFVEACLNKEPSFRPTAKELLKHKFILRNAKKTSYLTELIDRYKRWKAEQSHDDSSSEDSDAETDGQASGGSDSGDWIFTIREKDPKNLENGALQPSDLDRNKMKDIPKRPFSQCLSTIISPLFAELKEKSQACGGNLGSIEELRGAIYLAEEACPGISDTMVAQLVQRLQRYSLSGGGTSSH

For CNc1ncc2cc(-c3ccc(-c4cccc(C)n4)cc3Cl)c(=O)n(CCCCN)c2n1 [compound 20, MRLW5], the “ΔTm MRLW5 (20)” value (MST3) was 11.7 °C, the “ΔTm MRLW5 (20)” value (MER) was 2.5 °C and the “ΔTm MRLW5 (20)” value (MAP2K4) was 7.7 °C. For the same compound, the “ΔTm MRLW5 (20)” value (MARK4) was 8.2 °C, the “ΔTm MRLW5 (20)” value (FGFR1) was 0.4 °C and the “ΔTm MRLW5 (20)” value (CaMK1d) was 7.2 °C.

CNc1ncc2cc(-c3ccc(-c4cccc(C)n4)cc3Cl)c(=O)n(CCC3CCNCC3)c2n1 [compound 22, 6-(2-Chloro-4-(6-methylpyridin-2-yl)phenyl)-2-(methylamino)-8-(2-(piperidin-4-yl)ethyl)pyrido[2,3-d]pyrimidin-7(8H)-one] was tested, and the “ΔTm 22” value (MST3) was 10.5 °C, the “ΔTm 22” value (MER) was 2.6 °C and the “ΔTm 22” value (MAP2K4) was 6.1 °C. For the same compound, the “ΔTm 22” value (MARK4) was 5.8 °C, the “ΔTm 22” value (FGFR1) was 1.1 °C and the “ΔTm 22” value (CaMK1d) was 8.5 °C.

CNc1ncc2cc(-c3ccc(-c4cccc(C)n4)cc3Cl)c(=O)n(C[C@H]3CC[C@H](N)CC3)c2n1 [compound 23, 23] was tested, and the “ΔTm 23” value (MST3) was 10.8 °C, the “ΔTm 23” value (MER) was 3.1 °C and the “ΔTm 23” value (MAP2K4) was 8.2 °C. The “ΔTm 23” value (MARK4) was 12.7 °C, the “ΔTm 23” value (FGFR1) was 0.7 °C and the “ΔTm 23” value (CaMK1d) was 9.5 °C.

With Cc1cccc(-c2ccc(-c3cc4cnc(NC(CO)CO)nc4n(CCCCN)c3=O)c(Cl)c2)n1 [compound 24, 8-(4-Aminobutyl)-6-(2-chloro-4-(6-methylpyridin-2-yl)phenyl)-2-((1,3-dihydroxypropan-2-yl)amino)pyrido[2,3-d]pyrimidin-7(8H)-one] the “ΔTm MR24 (24)” value (MST3) was 11.0 °C, the “ΔTm MR24 (24)” value (MER) was -0.7 °C and the “ΔTm MR24 (24)” value (MAP2K4) was 5.0 °C. The “ΔTm MR24 (24)” value (MARK4) was 3.3 °C, the “ΔTm MR24 (24)” value (FGFR1) was 0.4 °C and the “ΔTm MR24 (24)” value (CaMK1d) was 0.5 °C.

For Cc1cccc(-c2ccc(-c3cc4cnc(NCCCc5ccc(N)cc5)nc4n(CCCCN)c3=O)c(Cl)c2)n1 [compound 25, 8-(4-Aminobutyl)-2-((3-(4-aminophenyl)propyl)amino)-6-(2-chloro-4-(6-methylpyridin-2-yl)phenyl)pyrido[2,3-d]pyrimidin-7(8H)-one], the “ΔTm 25” value (MST3) was 11.8 °C, the “ΔTm 25” value (MER) was 1.6 °C and the “ΔTm 25” value (MAP2K4) was 7.9 °C. The “ΔTm 25” value (MARK4) was 5.8 °C, the “ΔTm 25” value (FGFR1) was -0.4 °C and the “ΔTm 25” value (CaMK1d) was 5.3 °C.

Cc1cccc(-c2ccc(-c3cc4cnc(NCCCN5CCOCC5)nc4n(CCCCN)c3=O)c(Cl)c2)n1 [compound 26, MR26] was tested, and the “ΔTm MR26 (26)” value (MST3) was 12.4 °C, the “ΔTm MR26 (26)” value (MER) was 1.0 °C and the “ΔTm MR26 (26)” value (MAP2K4) was 5.6 °C. For the same compound, the “ΔTm MR26 (26)” value (MARK4) was 3.7 °C, the “ΔTm MR26 (26)” value (FGFR1) was 0.3 °C and the “ΔTm MR26 (26)” value (CaMK1d) was 4.1 °C.
